Laboratory results: publication PMC10384175, “In Vitro and In Silico Evaluation of Antiproliferative Activity of New Isoxazolidine Derivatives Targeting EGFR: Design, Synthesis, Cell Cycle Analysis, and Apoptotic Inducers” (Pharmaceuticals, 2023)
One block for each compound: values may come before it.

Experiments:
MCF-7 [1] = assay: MTT antiproliferative assay, MCF-7; assay type: cell-based, human
Method: (§1) Compounds 2a–g were tested for their growth inhibitory effectiveness against MCF-7, A-549, and SKOV3 cell lines by means of MTT assay, with doxorubicin used as an anticancer standard drug. […] Remarkably, we note the high antiproliferative activity of 2c and 2d, only towards SKOV3.
(§2) The Roswell Park Memorial Institute medium (RPMI 1640, Gibco, Grand Island, NY, USA) was used to culture the following cancer cell lines including MCF-7, A549, and SKOV3. Cells were grown in FBS (10%) and 100 units mL PS (penicillin/streptomycin) and were supplied to the same medium under standard cell conditions in an incubator (5% of CO2, at 37 °C).
(§3) Cell viability was measured according to the previously published work.

A549 [2] = assay: MTT antiproliferative assay, A549; assay type: cell-based, human
Method: Cell viability was measured according to the previously published work [42].

SKOV-3 = assay: MTT antiproliferative assay, SKOV3; assay type: cell-based, human
Method: as §1, §2, §3

EGFR tyrosine kinase = EGFR tyrosine kinase (Homo sapiens, UniProt P00533); assay: EGFR tyrosine kinase inhibition; assay type: biochemical; settings: enzymatic inhibition
Method: The EGFR activity was determined based on the method reported by E.A.A. El-Meguid et al. [43].

MCF-7 [3] = assay: Cellular apoptosis assay (flow cytometry), MCF-7; assay type: cell-based, human; settings: MCF-7, at IC50, 48 h
A549 [4] = assay: Cellular apoptosis assay (flow cytometry), A549; assay type: cell-based, human; settings: A549, at IC50, 48 h
SKOV3 [5] = assay: Cellular apoptosis assay (flow cytometry), SKOV3; assay type: cell-based, human; settings: SKOV3, at IC50, 48 h
MCF-7 [6] = assay: Flow cytometric cell cycle analysis (PI), MCF-7; assay type: cell-based, human; settings: for cell cycle arrest phase: MCF-7; for (%) of cells in G0/G1 / (%) of cells in S: MCF-7, 48 h at IC50
Method: (§4) Based on the antiproliferative activity data shown above, a flow cytometry analysis was performed to identify the cell cycle arrest induced by the selected compounds (2f and 2g) in the three cell lines, for 48 h at their respective IC50 concentrations (Figure 4). The cell cycle (G1, S, and G2) was analyzed after staining the DNA with propidium iodide (PI). […] Towards SKOV3 cell lines, the population of cells in the G0/G1 phase was not affected for 2f (31.4 ± 1.2 vs. 30.8 ± 1.5) and increased for 2g (31.4 ± 1.2 vs. 44.5 ± 0.6). Moreover, in the S phase, it was increased for 2f (43.1 ± 0.6vs. 59.5 ± 0.2) and not affected for 2g (43.1 ± 0.6 vs. 44.8 ± 1.6), however, it decreased in the G2/M phase for both 2f and 2g by a factor of 2.83 and 2.44, respectively.
(§5) The effect of selected compounds on cell cycle phase distribution was determined by flow cytometry using the same protocol described elsewhere.

A549 [7] = assay: Flow cytometric cell cycle analysis (PI), A549; assay type: cell-based, human; settings: for cell cycle arrest phase: A549
Method: The effect of selected compounds on cell cycle phase distribution was determined by flow cytometry using the same protocol described elsewhere [44].

SKOV3 [8] = assay: Flow cytometric cell cycle analysis (PI), SKOV3; assay type: cell-based, human; settings: for cell cycle arrest phase: SKOV3; for (%) of cells in G0/G1 / (%) of cells in S / decrease in the G2/M phase vs control, factor: SKOV3, 48 h at IC50
Method: as §4, §5

[9] = Homo sapiens, SK-OV-3, MTT assay

Sequence of EGFR tyrosine kinase (P00533 25-1210): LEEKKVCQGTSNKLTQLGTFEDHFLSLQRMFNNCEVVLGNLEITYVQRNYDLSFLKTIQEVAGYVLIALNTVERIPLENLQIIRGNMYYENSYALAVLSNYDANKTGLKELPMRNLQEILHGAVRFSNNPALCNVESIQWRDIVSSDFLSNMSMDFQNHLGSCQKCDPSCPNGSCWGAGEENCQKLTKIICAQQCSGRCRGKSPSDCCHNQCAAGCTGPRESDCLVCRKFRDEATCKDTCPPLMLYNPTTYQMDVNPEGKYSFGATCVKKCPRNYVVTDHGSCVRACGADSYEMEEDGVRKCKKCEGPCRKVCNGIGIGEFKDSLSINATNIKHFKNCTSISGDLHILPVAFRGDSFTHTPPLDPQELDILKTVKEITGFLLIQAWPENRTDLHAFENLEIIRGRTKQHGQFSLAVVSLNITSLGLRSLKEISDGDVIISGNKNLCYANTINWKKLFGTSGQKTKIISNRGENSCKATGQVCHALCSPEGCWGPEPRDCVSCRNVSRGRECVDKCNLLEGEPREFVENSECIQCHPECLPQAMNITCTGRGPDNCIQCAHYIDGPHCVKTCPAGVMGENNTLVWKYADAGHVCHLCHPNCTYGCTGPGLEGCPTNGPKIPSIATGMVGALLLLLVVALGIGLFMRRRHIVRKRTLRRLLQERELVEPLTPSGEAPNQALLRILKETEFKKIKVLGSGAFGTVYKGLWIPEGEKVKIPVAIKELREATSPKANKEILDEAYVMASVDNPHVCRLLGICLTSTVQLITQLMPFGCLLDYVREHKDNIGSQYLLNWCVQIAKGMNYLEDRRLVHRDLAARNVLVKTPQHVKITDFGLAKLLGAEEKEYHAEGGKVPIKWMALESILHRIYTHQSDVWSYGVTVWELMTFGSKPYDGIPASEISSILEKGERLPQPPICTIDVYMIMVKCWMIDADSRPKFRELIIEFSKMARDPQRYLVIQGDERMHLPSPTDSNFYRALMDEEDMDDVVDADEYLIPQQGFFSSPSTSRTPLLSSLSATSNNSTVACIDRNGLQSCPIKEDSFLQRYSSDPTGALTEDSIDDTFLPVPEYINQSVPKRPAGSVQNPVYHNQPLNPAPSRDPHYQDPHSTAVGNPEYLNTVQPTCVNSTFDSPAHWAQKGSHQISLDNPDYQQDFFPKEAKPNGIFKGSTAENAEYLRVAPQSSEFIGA

Compound: COc1cc(C[C@@H]2C[C@H]3C(=O)N(C)C4(C[C@H](C)CC[C@H]4C(C)C)N3O2)ccc1O (stereo partly drawn) [2a, (2S,2′R,3a′S,5R)-2′-(4-hydroxy-3-methoxybenzyl)-2-isopropyl-5,5′-dimethyldihydro-2′H-spiro[cyclohexane-1,6′-imidazo [1,5-b]isoxazol]-4′(5′H)-one]
IC50 (MCF-7 [1]; Homo sapiens, MCF7, MTT assay): 21.3 ± 0.5 µM
IC50 (A549 [2]; Homo sapiens, A549, MTT assay): 18.1 ± 0.7 µM
IC50 (SKOV-3; [9]): 14.5 ± 0.9 µM

Compound: Cc1cccc(C[C@@H]2C[C@H]3C(=O)N(C)C4(C[C@H](C)CC[C@H]4C(C)C)N3O2)c1O (stereo partly drawn) [2c, (2S,2′R,3a′S,5R)-2′-(2-hydroxy-3-methylbenzyl)-2-isopropyl-5,5′-dimethyldihydro-2′H-spiro[cyclohexane-1,6′-imidazo [1,5-b]isoxazol]-4′(5′H)-one]
IC50 (MCF-7 [1]; Homo sapiens, MCF7, MTT assay): 7.2 ± 0.2 µM
IC50 (A549 [2]; Homo sapiens, A549, MTT assay): 35.4 ± 0.14 µM
IC50 (SKOV-3; [9]): 19.4 ± 1.4 µM

Compound: COc1ccc(C[C@@H]2C[C@H]3C(=O)N(C)C4(C[C@H](C)CC[C@H]4C(C)C)N3O2)cc1OC (stereo partly drawn) [2d, (2S,2′R,3a′S,5R)-2′-(3,4-dimethoxybenzyl)-2-isopropyl-5,5′-dimethyldihydro-2′H-spiro[cyclohexane-1,6′-imidazo [1,5-b]isoxazol]-4′(5′H)-one]
IC50 (MCF-7 [1]; Homo sapiens, MCF7, MTT assay): 8.7 ± 0.5 µM
IC50 (A549 [2]; Homo sapiens, A549, MTT assay): 25 ± 2.5 µM
IC50 (SKOV-3; [9]): 27.6 ± 2.2 µM

Compound: COc1cc(C[C@@H]2C[C@H]3C(=O)N(C)[C@@]4(C[C@H](C)CC[C@H]4C(C)C)N3O2)ccc1OC(C)=O [2e, 4-(((1S,2S,2′R,3a′S,5R)-2-Isopropyl-5,5′-dimethyl-4′-oxotetrahydro-2′H-spiro[cyclohexane-1,6′-imidazo [1,5-b]isoxazol]-2′-yl)methyl)-2-methoxyphenyl acetate]
IC50 (MCF-7 [1]; Homo sapiens, MCF7, MTT assay): 66.8 ± 2.7 µM
IC50 (A549 [2]; Homo sapiens, A549, MTT assay): 53.5 ± 1.1 µM
IC50 (SKOV-3; [9]): 27.9 ± 1.9 µM

Compound: CC(C)[C@@H]1CC[C@@H](C)C[C@@]12N(C)C(=O)[C@@H]1C[C@@H](Cc3ccccc3O)ON12 [2f, (1S,2S,2′R,3a′S,5R)-2′-(2-Hydroxybenzyl)-2-isopropyl-5,5′-dimethyldihydro-2′H-spiro[cyclohexane-1,6′-imidazo [1,5-b]isoxazol]-4′(5′H)-one]
IC50 (MCF-7 [1]; Homo sapiens, MCF7, MTT assay): 9.7 ± 1.3 µM
IC50 (MCF-7 [1]; MTT assay): 17.7 ± 1 µM
IC50 (A549 [2]; Homo sapiens, A549, MTT assay): 9.7 ± 0.7 µM
IC50 (A549 [2]; MTT assay): 12.1 ± 1.1 µM
IC50 (EGFR tyrosine kinase): 0.298 ± 0.007 µM
Early apoptosis (MCF-7 [3]): 70.48%
Intact cells (MCF-7 [3]): 13.11%
Late apoptosis (MCF-7 [3]): 15.78%
Necrosis (MCF-7 [3]): 0.63%
Total death (cellular apoptosis) (MCF-7 [3]): 86.89%
Early apoptosis (A549 [4]): 16.72%
Intact cells (A549 [4]): 7.39%
Late apoptosis (A549 [4]): 70.5%
Necrosis (A549 [4]): 5.39%
Total death (cellular apoptosis) (A549 [4]): 92.61%
Early apoptosis (SKOV3 [5]): 17.9%
Intact cells (SKOV3 [5]): 8.78%
Late apoptosis (SKOV3 [5]): 67.16%
Necrosis (SKOV3 [5]): 6.16%
Total death (cellular apoptosis) (SKOV3 [5]): 91.22%
cell cycle arrest phase (MCF-7 [6]): S phase
(%) of cells in G0/G1 (MCF-7 [6]): 19 ± 1.2%
(%) of cells in S (MCF-7 [6]): 63.3 ± 0.6%
cell cycle arrest phase (A549 [7]): G2/M phase
(%) of cells in G0/G1 (A549 [7]; A549, 48 h at IC50): 23.1 ± 0.8%
cell cycle arrest phase (SKOV3 [8]): S phase
(%) of cells in G0/G1 (SKOV3 [8]): 31.4 ± 1.2%
(%) of cells in S (SKOV3 [8]): 59.5 ± 0.2%
decrease in the G2/M phase vs control, factor (SKOV3 [8]): 2.83

Compound: COC(=O)c1cc(C)cc(C[C@@H]2C[C@H]3C(=O)N(C)[C@@]4(C[C@H](C)CC[C@H]4C(C)C)N3O2)c1O [2g, Methyl 2-hydroxy-3-(((1S,2S,2′R,3a′S,5R)-2-isopropyl-5,5′-dimethyl-4′-oxotetrahydro-2′H-spiro[cyclohexane-1,6′-imidazo[1,5-b]isoxazol]-2′-yl)methyl)-5-methylbenzoate]
IC50 (MCF-7 [1]; Homo sapiens, MCF7, MTT assay): 17.7 ± 1 µM
IC50 (MCF-7 [1]; MTT assay): 9.7 ± 1.3 µM
IC50 (A549 [2]; Homo sapiens, A549, MTT assay): 12.1 ± 1.1 µM
IC50 (A549 [2]; MTT assay): 9.7 ± 0.7 µM
IC50 (EGFR tyrosine kinase): 0.484 ± 0.01 µM
Early apoptosis (MCF-7 [3]): 46.49%
Intact cells (MCF-7 [3]): 24.83%
Late apoptosis (MCF-7 [3]): 20.51%
Necrosis (MCF-7 [3]): 8.17%
Total death (cellular apoptosis) (MCF-7 [3]): 75.17%
Early apoptosis (A549 [4]): 60.72%
Intact cells (A549 [4]): 21.24%
Late apoptosis (A549 [4]): 17.69%
Necrosis (A549 [4]): 0.35%
Total death (cellular apoptosis) (A549 [4]): 78.76%
Early apoptosis (SKOV3 [5]): 12.92%
Intact cells (SKOV3 [5]): 3.34%
Late apoptosis (SKOV3 [5]): 81.05%
Necrosis (SKOV3 [5]): 2.68%
Total death (cellular apoptosis) (SKOV3 [5]): 96.65%
cell cycle arrest phase (MCF-7 [6]): G0/G1 phase
(%) of cells in G0/G1 (MCF-7 [6]): 53.7 ± 0.6%
(%) of cells in S (MCF-7 [6]): 36.3 ± 0.6%
cell cycle arrest phase (A549 [7]): G0/G1 phase
(%) of cells in G0/G1 (A549 [7]; A549, 48 h at IC50): 49.3 ± 0.7%
(%) of cells in S (A549 [7]; A549, 48 h at IC50): 40.2 ± 0.3%
decrease of population in the G2/M phase vs control (A549 [7]; A549, 48 h at IC50): 2.37 folds
decrease of population in the S phase vs control (A549 [7]; A549, 48 h at IC50): 1.08 folds
cell cycle arrest phase (SKOV3 [8]): G0/G1 phase
(%) of cells in G0/G1 (SKOV3 [8]): 44.5 ± 0.6%
(%) of cells in S (SKOV3 [8]): 44.8 ± 1.6%
decrease in the G2/M phase vs control, factor (SKOV3 [8]): 2.44

IC50 (MCF-7 [1]; Homo sapiens, MCF7, MTT assay): 2.8 ± 0.4 µM
IC50 (A549 [2]; Homo sapiens, A549, MTT assay): 4.2 ± 0.24 µM
IC50 (SKOV-3; [9]): 4.2 ± 0.013 µM
Compound: COc1cccc2c1C(=O)c1c(O)c3c(c(O)c1C2=O)C[C@@](O)(C(=O)CO)C[C@@H]3O[C@H]1C[C@H](N)[C@H](O)[C@H](C)O1 [Doxorubicin, doxorubicin, reference compound]
Early apoptosis (MCF-7 [3]): 17.12%
Intact cells (MCF-7 [3]): 7.94%
Late apoptosis (MCF-7 [3]): 68.7%
Necrosis (MCF-7 [3]): 6.24%
Total death (cellular apoptosis) (MCF-7 [3]): 92.06%
Early apoptosis (A549 [4]): 9.38%
Intact cells (A549 [4]): 1.16%
Late apoptosis (A549 [4]): 88.01%
Necrosis (A549 [4]): 1.45%
Total death (cellular apoptosis) (A549 [4]): 98.84%
Early apoptosis (SKOV3 [5]): 20.56%
Intact cells (SKOV3 [5]): 3.25%
Late apoptosis (SKOV3 [5]): 73.08%
Necrosis (SKOV3 [5]): 3.11%
Total death (cellular apoptosis) (SKOV3 [5]): 96.75%
(%) of cells in G0/G1 (MCF-7 [6]): 18.4 ± 0.9%
(%) of cells in S (MCF-7 [6]): 34 ± 0.6%
(%) of cells in G0/G1 (A549 [7]; A549, 48 h at IC50): 16.12 ± 0.54%
(%) of cells in S (A549 [7]; A549, 48 h at IC50): 34.01 ± 0.24%
(%) of cells in G0/G1 (SKOV3 [8]): 16.7 ± 1%
(%) of cells in S (SKOV3 [8]): 30.7 ± 0.6%

Compound: (2R,2′R,3a′S,5R)-2′-(2-acetyl-6-hydroxybenzyl)-2,5,5′-trimethyldihydro-2′H-spiro[cyclohexane-1,6′-imidazo [1,5-b]isoxazol]-4′(5′H)-one [2b]
IC50 (MCF-7 [1]; MTT assay): 22.2 ± 0.3 µM
IC50 (A549 [2]; MTT assay): 48.7 ± 0.9 µM
IC50 (SKOV-3; MTT assay): 18.3 ± 0.9 µM
